Drawing on ChEMBL document CHEMBL1131390, “Inhibition of lipid peroxidation mediated by indolizines” (Bioorg Med Chem Lett, 1998), this text covers IC50 and inhibition for 11 compounds.

pIC50: −log10 of the molar value.

One assay is filed under the species Rattus norvegicus. The assay can be described thus: Compound was tested in vitro for inhibitory activity against lipid peroxidation after 30 minutes. In kind it is functional. The following applies: 0.5 h.
As to `CC(=O)Oc1c(-c2ccccc2)c(-c2ccccc2)n2ccc(C(C)=O)cc12`, the pIC50 (as a rule, the IC50 on a negative log10 scale, so that one unit is a factor of ten) is 5.28.

In turn, `CC(=O)Oc1c(-c2ccccc2)c(-c2ccccc2)n2ccccc12` gave a pIC50 of 4.93.

For `COC(=O)Oc1c(-c2ccccc2)c(-c2ccccc2)n2ccc(C=O)cc12`, the pIC50 was 5.59.

`CC(=O)Oc1c(-c2ccccc2)c(-c2ccccc2)n2ccc(C(=O)c3ccccc3)cc12` had a pIC50 of 5.60.

Consider `CC(=O)Oc1c(-c2ccccc2)c(-c2ccccc2)n2ccc(C=O)cc12`, for which the negative-log IC50 (pIC50) was 5.54.

In turn, `COc1c(-c2ccccc2)c(-c2ccccc2)n2ccc(C=O)cc12` had a pIC50 of 5.38.

The compound `CC(=O)Oc1c(-c2ccccc2)c(-c2ccccc2)n2cc(C(C)=O)ccc12` gave a pIC50 of 5.46.

Take `O=Cc1ccn2c(-c3ccccc3)c(-c3ccccc3)c(OC(=O)Nc3ccccc3)c2c1`: the pIC50 is 5.49.

For the compound `CC(=O)Oc1c(-c2ccccc2)c(-c2ccccc2)n2ncccc12`, the negative logarithm of the IC50 (pIC50) is 5.51.

For another assay, the species on record is Rattus norvegicus. Kind of assay: Compound was tested in vitro for inhibitory activity against lipid peroxidation at concentration 100 uM. In kind it is functional, organism-based.
Conditions: not given
Consider `CCCCCCCCCCCCCCCC(=O)Oc1c(-c2ccccc2)c(-c2ccccc2)n2ccc(C=O)cc12`, for which the inhibition (as a rule, the drop in the measured response relative to a control, in per cent) was 9%.

`CC(=O)Oc1c(-c2ccccc2)c(-c2ccccc2)n2ncc3ccccc3c12` returned an inhibition of 28%.
